The results in this text go back to patent publication US10407429B2, “Pyrazolo[1,5-a]triazin-4-amine derivatives useful in therapy” (Curovir AB, priority 2015, dated 2019).

Like-named read-outs stand apart in the source and are kept apart here.

Assay type in all cases: cell-based
One assay relates to coxsackie B2 virus. The experiment in a line: Antiviral CPE assay in mammalian cell culture. Particulars: read-out: inhibition capacity (IC50) B2.
Another assay has as its system Enterovirus 71. The experiment in a line: Antiviral CPE assay in mammalian cell culture. Particulars: Enterovirus A, EV71, prevention of viral CPE, read-out: inhibition capacity (IC50) EV71.
The next assay has as its system Enterovirus 30. The experiment in a line: Antiviral CPE assay in mammalian cell culture. To be noted: read-out: inhibition capacity (IC50) EV30.
A further assay deals with coxsackie B1 virus. The experiment in a line: Antiviral CPE assay in mammalian cell culture. To be noted: read-out: inhibition capacity (IC50) Bl.
A further assay has as its system Enterovirus 68. The experiment in a line: Antiviral CPE assay in mammalian cell culture. To be noted: Enterovirus D.
A further assay relates to polio virus Sabin 1. The experiment in a line: organism not typed. To be noted: read-out: inhibition capacity (IC50) Polio 1.
The next assay deals with coxsackie B5virus. The assay can be described thus: Antiviral CPE assay in mammalian cell culture. To be noted: read-out: inhibition capacity (IC50) B5.
Another assay relates to coxsackie B 4 virus. The experiment in a line: Antiviral CPE assay in mammalian cell culture. To be noted: Enterovirus B.
The subject of a further assay is Enterovirus 6. The assay can be described thus: Antiviral CPE assay in mammalian cell culture. Particulars: prevention of viral CPE, read-out: inhibition capacity (IC50) EV6.
For a further assay, the system named is coxsackie B3 virus. The assay can be described thus: Antiviral CPE assay in mammalian cell culture. Particulars: Enterovirus B.
The mark [1] stands for this setting: EV68, read-out: inhibition capacity (IC50) EV68.
Setting [2] is: B4, read-out: inhibition capacity (IC50) B4.
Where [3] appears, read: B3, read-out: inhibition capacity (IC50) B3.

Turning to `COC(=O)NS(=O)(=O)c1ccc(CNc2nc(C)nc3c(-c4ccc(OC)c(OC)c4)c(C)nn23)cc1` [Example 24, methyl N-[4-[[[8-(3,4-dimethoxyphenyl)-2,7-dimethyl-pyrazolo[1,5-a][1,3,5]triazin-4-yl]amino]methyl]phenyl]sulfonylcarbamate], the IC50 in the assay on coxsackie B2 virus is < 1000 nM; with Enterovirus 71, < 1000 nM; in the assay with Enterovirus 30 (Enterovirus) it was > 1000 nM; in the assay on coxsackie B1 virus, > 1000 nM; in the assay on Enterovirus 68 (setting [1]), < 1000 nM; with polio virus Sabin 1, < 1000 nM. Also, the IC50 is > 1000 nM in the assay on coxsackie B5virus, < 1000 nM in the assay on coxsackie B 4 virus (setting [2]), > 1000 nM with Enterovirus 6 and > 1000 nM in the assay on coxsackie B3 virus (setting [3]).
In the case of `COc1ccc(-c2c(C)nn3c(NCC4CCCO4)nc(C)nc23)cc1OC` (stereo not shown) [Example 18, 8-(3,4-dimethoxyphenyl)-2,7-dimethyl-N-(tetrahydrofuran-2-ylmethyl)pyrazolo[1,5-a][1,3,5]triazin-4-amine], the concentration for half-maximal inhibition (IC50) in the assay on coxsackie B2 virus, in the assay on Enterovirus 71, in the assay on Enterovirus 30 (Enterovirus), in the assay with coxsackie B1 virus, with Enterovirus 68 (setting [1]) and in the assay on polio virus Sabin 1 was < 1000 nM throughout. The IC50 in the assay on coxsackie B5virus, with coxsackie B 4 virus (setting [2]), with Enterovirus 6 and in the assay on coxsackie B3 virus (setting [3]) was < 1000 nM throughout.
`COc1ccc(-c2c(C)nn3c(NCc4ccc(C)cc4)nc(C)nc23)cc1OC` [Example 3, 8-(3,4-dimethoxyphenyl)-2,7-dimethyl-N-(p-tolylmethyl)pyrazolo[1,5-a][1,3,5]triazin-4-amine]: the IC50 in the assay on coxsackie B2 virus, in the assay on Enterovirus 71, in the assay on Enterovirus 30 (Enterovirus), with coxsackie B1 virus, in the assay on Enterovirus 68 (setting [1]) and in the assay with polio virus Sabin 1 was < 100 nM in each case. Further, the IC50 with coxsackie B5virus was < 100 nM; with coxsackie B 4 virus (setting [2]) it was < 100 nM; in the assay on Enterovirus 6, < 1000 nM; in the assay with coxsackie B3 virus (setting [3]), < 100 nM.
On to `COc1ccc(-c2c(C)nn3c(NCc4ccc(O)cc4)nc(C)nc23)cc1OC` [Example 17, 4-[[[8-(3,4-dimethoxyphenyl)-2,7-dimethyl-pyrazolo[1,5-a][1,3,5]triazin-4-yl]amino]methyl]phenol], for which the half-maximal inhibitory concentration (IC50) in the assay with coxsackie B2 virus is < 10 nM; in the assay with Enterovirus 71 it was < 10 nM; in the assay on Enterovirus 30 (Enterovirus), < 100 nM; in the assay with coxsackie B1 virus, < 10 nM; with Enterovirus 68 (setting [1]), < 100 nM; in the assay with polio virus Sabin 1, < 10 nM. The 50% inhibitory concentration (IC50) was < 10 nM in the assay with coxsackie B5virus, < 100 nM in the assay on coxsackie B 4 virus (setting [2]), < 100 nM in the assay on Enterovirus 6 and < 100 nM in the assay on coxsackie B3 virus (setting [3]).
Turning to `COc1ccc(-c2c(C)nn3c(NCc4ccc5c(c4)OCO5)nc(C)nc23)cc1OC` [Example 16, N-(1,3-benzodioxol-5-ylmethyl)-8-(3,4-dimethoxyphenyl)-2,7-dimethyl-pyrazolo[1,5-a][1,3,5]triazin-4-amine], the half-inhibitory concentration (IC50) with coxsackie B2 virus, in the assay with Enterovirus 71, with Enterovirus 30 (Enterovirus), in the assay on coxsackie B1 virus, in the assay with Enterovirus 68 (setting [1]) and with polio virus Sabin 1 was < 100 nM each time. The IC50 with coxsackie B5virus is < 100 nM; with coxsackie B 4 virus (setting [2]), < 10 nM; in the assay on Enterovirus 6, < 1000 nM; in the assay on coxsackie B3 virus (setting [3]), < 100 nM.
`COc1ccc(-c2c(C)nn3c(NCc4ccc(C)o4)nc(C)nc23)cc1OC` [Example 23, 8-(3,4-dimethoxyphenyl)-2,7-dimethyl-N-[(5-methyl-2-furyl)methyl]pyrazolo[1,5-a][1,3,5]triazin-4-amine]: the 50% inhibitory concentration (IC50) was < 100 nM in the assay on coxsackie B2 virus; < 100 nM with Enterovirus 71; < 100 nM in the assay with Enterovirus 30 (Enterovirus); < 10 nM with coxsackie B1 virus; < 100 nM with Enterovirus 68 (setting [1]); < 10 nM in the assay on polio virus Sabin 1. Further, the 50% inhibitory concentration (IC50) in the assay with coxsackie B5virus is < 100 nM; in the assay with coxsackie B 4 virus (setting [2]), < 10 nM; in the assay with Enterovirus 6 it was < 100 nM; in the assay with coxsackie B3 virus (setting [3]), < 100 nM.
For the molecule `COc1ccc(-c2c(C)nn3c(NCc4ccnnc4)nc(C)nc23)cc1OC` [Example 31, 8-(3,4-dimethoxyphenyl)-2,7-dimethyl-N-[(pyridazin-4-yl)methyl]pyrazolo[1,5-a][1,3,5]triazin-4-amine], the concentration for half-maximal inhibition (IC50) with coxsackie B2 virus was < 1000 nM; in the assay with Enterovirus 71 it was < 100 nM; in the assay on Enterovirus 30 (Enterovirus) it was > 1000 nM; with coxsackie B1 virus, < 1000 nM; in the assay on Enterovirus 68 (setting [1]), < 100 nM; in the assay on polio virus Sabin 1, < 1000 nM. Moreover, the IC50 is < 1000 nM with coxsackie B5virus, < 10 nM in the assay with coxsackie B 4 virus (setting [2]), < 1000 nM with Enterovirus 6 and < 1000 nM in the assay with coxsackie B3 virus (setting [3]).
For the molecule `COc1ccc(-c2c(C)nn3c(NCC4CCNCC4)nc(C)nc23)cc1OC` [Example 29, 8-(3,4-dimethoxyphenyl)-2,7-dimethyl-N-[(piperidin-4-yl)methyl]pyrazolo[1,5-a][1,3,5]triazin-4-amine], the concentration for half-maximal inhibition (IC50) in the assay on coxsackie B2 virus, with Enterovirus 71, in the assay with Enterovirus 30 (Enterovirus), with coxsackie B1 virus, with Enterovirus 68 (setting [1]) and in the assay on polio virus Sabin 1 was > 1000 nM in each case. Moreover, the IC50 with coxsackie B5virus, in the assay on coxsackie B 4 virus (setting [2]), in the assay on Enterovirus 6 and in the assay with coxsackie B3 virus (setting [3]) was > 1000 nM throughout.
Consider `CNS(=O)(=O)c1ccc(CNc2nc(C)nc3c(-c4ccc(OC)c(OC)c4)c(C)nn23)cc1` [Example 26, N-methyl-4-[[[8-(3,4-dimethoxyphenyl)-2,7-dimethyl-pyrazolo[1,5-a][1,3,5]triazin-4-yl]amino]methyl]benzenesulfonamide], for which the half-inhibitory concentration (IC50) with coxsackie B2 virus was < 100 nM; with Enterovirus 71 it was < 1000 nM; in the assay on Enterovirus 30 (Enterovirus), < 1000 nM; in the assay with coxsackie B1 virus, < 1000 nM; in the assay with Enterovirus 68 (setting [1]), > 1000 nM; in the assay on polio virus Sabin 1 it was < 100 nM. Further, the half-maximal inhibitory concentration (IC50) in the assay with coxsackie B5virus was < 1000 nM; in the assay on coxsackie B 4 virus (setting [2]), < 100 nM; with Enterovirus 6, < 1000 nM; in the assay on coxsackie B3 virus (setting [3]) it was < 1000 nM.
In the case of `COc1ccc(CNc2nc(C)nc3c(-c4ccc(OC)c(OC)c4)c(C)nn23)cc1` [Example 10, 8-(3,4-dimethoxyphenyl)-N-[(4-methoxyphenyl)methyl]-2,7-dimethyl-pyrazolo[1,5-a][1,3,5]triazin-4-amine], the concentration for half-maximal inhibition (IC50) with coxsackie B2 virus is < 100 nM; with Enterovirus 71 it was < 1000 nM; with Enterovirus 30 (Enterovirus), < 100 nM; in the assay with coxsackie B1 virus, < 100 nM; in the assay with Enterovirus 68 (setting [1]) it was < 100 nM; with polio virus Sabin 1, < 100 nM. Moreover, the IC50 was < 100 nM in the assay with coxsackie B5virus, < 100 nM in the assay with coxsackie B 4 virus (setting [2]), < 1000 nM in the assay with Enterovirus 6 and < 1000 nM in the assay with coxsackie B3 virus (setting [3]).
Take `COc1ccc(-c2c(C)nn3c(NCc4ccc(C)nc4)nc(C)nc23)cc1OC` [Example 32, 8-(3,4-dimethoxyphenyl)-2,7-dimethyl-N-[(6-methylpyridin-3-yl)methyl]pyrazolo[1,5-a][1,3,5]triazin-4-amine]: the IC50 is < 100 nM in the assay with coxsackie B2 virus (prevention of viral CPE, mammalian cell culture, coxsackie B2 virus); < 100 nM in the assay with Enterovirus 71; < 10 nM in the assay with Enterovirus 30 (prevention of viral CPE, mammalian cell culture, Enterovirus 30); < 100 nM in the assay on coxsackie B1 virus (prevention of viral CPE, mammalian cell culture, coxsackie B1 virus); < 100 nM in the assay on Enterovirus 68 (EV68, prevention of viral CPE, mammalian cell culture, Enterovirus 68, read-out: inhibition capacity (IC50) EV68); < 100 nM in the assay with polio virus Sabin 1. For the same molecule, the IC50 in the assay with coxsackie B5virus (prevention of viral CPE, mammalian cell culture, coxsackie B5 virus) was < 100 nM; in the assay on coxsackie B 4 virus (prevention of viral CPE, mammalian cell culture, coxsackie B4 virus, read-out: inhibition capacity (IC50) B4), < 100 nM; in the assay on Enterovirus 6 it was < 100 nM; in the assay with coxsackie B3 virus (prevention of viral CPE, mammalian cell culture, coxsackie B3 virus, read-out: inhibition capacity (IC50) B3) it was < 10 nM.
In the case of `COc1ccc(-c2c(C)nn3c(NCc4ccc(C(F)(F)F)cc4)nc(C)nc23)cc1OC` [Example 2, 8-(3,4-dimethoxyphenyl)-2,7-dimethyl-N-[[4-(trifluoromethyl)phenyl]methyl]pyrazolo[1,5-a][1,3,5]triazin-4-amine], the IC50 in the assay with coxsackie B2 virus is < 100 nM; with Enterovirus 71 it was < 1000 nM; in the assay on Enterovirus 30 (Enterovirus) it was < 100 nM; with coxsackie B1 virus it was < 100 nM; in the assay on Enterovirus 68 (setting [1]) it was < 1000 nM; in the assay on polio virus Sabin 1, < 100 nM. In addition, the IC50 is < 100 nM with coxsackie B5virus, < 100 nM in the assay on coxsackie B 4 virus (setting [2]), < 1000 nM in the assay on Enterovirus 6 and < 1000 nM in the assay on coxsackie B3 virus (setting [3]).
Consider `COc1ccc(-c2c(C)nn3c(NCCc4ccc(Cl)cc4)nc(C)nc23)cc1OC` [Example 7, N-[2-(4-chlorophenyl)ethyl]-8-(3,4-dimethoxyphenyl)-2,7-dimethyl-pyrazolo[1,5-a][1,3,5]triazin-4-amine], for which the 50% inhibitory concentration (IC50) in the assay with coxsackie B2 virus, with Enterovirus 71, with Enterovirus 30 (Enterovirus), with coxsackie B1 virus, with Enterovirus 68 (setting [1]) and with polio virus Sabin 1 was < 1000 nM in each case. For the same molecule, the IC50 with coxsackie B5virus, in the assay on coxsackie B 4 virus (setting [2]), with Enterovirus 6 and with coxsackie B3 virus (setting [3]) was < 1000 nM in each case.
